Test results published in US11117900B2 (Vertex Pharmaceuticals Incorporated, priority 2012, dated 2021).
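Further: compound concentration needed to lower the IC50 of Cisplatin alone by a set fold.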

The compounds below were run on HCT116 colorectal cancer cells (assay: Cisplatin sensitization assay (96 h MTS cell viability)). Conditions: Cisplatin sensitization value.
Type: cell-based
Outline: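 The MTS viability read, after 1 h with reagent, followed 96 h of co-treatment at 37° C. in 5% CO2. Both compound and cisplatin were titrated 2-fold from a 10 μM top final concentration in a complete concentration matrix on HCT116 cells. Scores +++/++/+ reflect cisplatin sensitization value ranges.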
CN1CCOC2(CCN(c3c(F)cncc3NC(=O)c3c(N)nn4cc(F)cnc34)CC2)C1 [I-N-272, 2-amino-6-fluoro-N-(5-fluoro-4-(4-methyl-1-oxa-4,9-diazaspiro[5.5]undecan-9-yl)pyridin-3-yl)pyrazolo[1,5-a]pyrimidine-3-carboxamide] was tested, and the “Cisplatin Sensitization Assay” value was “+++ (Compounds with a Cisplatin sensitization value of <0.02 μM are marked with “+++.”)”. In the case of Nc1nn2cc(F)cnc2c1C(=O)Nc1cncc(F)c1N1CCC(S(=O)(=O)N2CCN3CCC2CC3)CC1 [I-N-273, N-(4-(4-(1,4-diazabicyclo[3.2.2]nonan-4-ylsulfonyl)piperidin-1-yl)-5-fluoropyridin-3-yl)-2-amino-6-fluoropyrazolo[1,5-a]pyrimidine-3-carboxamide], the “Cisplatin Sensitization Assay” value is reported as “+++ (Compounds with a Cisplatin sensitization value of <0.02 μM are marked with “+++.”)”. With Nc1nn2cc(F)cnc2c1C(=O)Nc1cncc(F)c1N1CCN(C(=O)C2CCOC2)CC1 (stereo not drawn) [I-N-274, 2-amino-6-fluoro-N-(5-fluoro-4-(4-(tetrahydrofuran-3-carbonyl)piperazin-1-yl)pyridin-3-yl)pyrazolo[1,5-a]pyrimidine-3-carboxamide] the “Cisplatin Sensitization Assay” value was “+++ (Compounds with a Cisplatin sensitization value of <0.02 μM are marked with “+++.”)”. For CC(=O)N1CCN(c2c(F)cncc2NC(=O)c2c(N)nn3cc(F)cnc23)CC1 [I-N-275, N-(4-(4-acetylpiperazin-1-yl)-5-fluoropyridin-3-yl)-2-amino-6-fluoropyrazolo[1,5-a]pyrimidine-3-carboxamide], the “Cisplatin Sensitization Assay” value was “+++ (Compounds with a Cisplatin sensitization value of <0.02 μM are marked with “+++.”)”. For Nc1nn2cc(F)cnc2c1C(=O)Nc1cncc(F)c1N1CCN(C(=O)C2CC2)CC1 [I-N-276, 2-amino-N-(4-(4-(cyclopropanecarbonyl)piperazin-1-yl)-5-fluoropyridin-3-yl)-6-fluoropyrazolo[1,5-a]pyrimidine-3-carboxamide], the “Cisplatin Sensitization Assay” value was “+++ (Compounds with a Cisplatin sensitization value of <0.02 μM are marked with “+++.”)”. With Nc1nn2cc(F)cnc2c1C(=O)Nc1cncc(F)c1N1CCN2C(=O)CCCC2C1 (stereo not drawn) [I-N-277, 2-amino-6-fluoro-N-(5-fluoro-4-(6-oxohexahydro-1H-pyrido[1,2-a]pyrazin-2(6H)-yl)pyridin-3-yl)pyrazolo[1,5-a]pyrimidine-3-carboxamide] the “Cisplatin Sensitization Assay” value was “+++ (Compounds with a Cisplatin sensitization value of <0.02 μM are marked with “+++.”)”. With Nc1nn2cc(F)cnc2c1C(=O)Nc1cncc(F)c1N1CCN(C(=O)C2COC2)CC1 [I-N-278, 2-amino-6-fluoro-N-(5-fluoro-4-(4-(oxetane-3-carbonyl)piperazin-1-yl)pyridin-3-yl)pyrazolo[1,5-a]pyrimidine-3-carboxamide] the “Cisplatin Sensitization Assay” value was “+++ (Compounds with a Cisplatin sensitization value of <0.02 μM are marked with “+++.”)”. For Nc1nn2cc(F)cnc2c1C(=O)Nc1cncc(F)c1N1CCN2C(=O)CCC[C@@H]2C1 [I-N-280, (R)-2-amino-6-fluoro-N-(5-fluoro-4-(6-oxohexahydro-1H-pyrido[1,2-a]pyrazin-2(6H)-yl)pyridin-3-yl)pyrazolo[1,5-a]pyrimidine-3-carboxamide], the “Cisplatin Sensitization Assay” value was “+++ (Compounds with a Cisplatin sensitization value of <0.02 μM are marked with “+++.”)”. With Nc1nn2cc(F)cnc2c1C(=O)Nc1cncc(Cl)c1N1CCCC1 [I-N-281, 2-amino-N-(5-chloro-4-(pyrrolidin-1-yl)pyridin-3-yl)-6-fluoropyrazolo[1,5-a]pyrimidine-3-carboxamide] the “Cisplatin Sensitization Assay” value was “+++ (Compounds with a Cisplatin sensitization value of <0.02 μM are marked with “+++.”)”. For COCC1CCN(c2ccncc2NC(=O)c2c(N)nn3cc(F)cnc23)CC1 [I-N-282, 2-amino-6-fluoro-N-(4-(4-(methoxymethyl)piperidin-1-yl)pyridin-3-yl)pyrazolo[1,5-a]pyrimidine-3-carboxamide], the “Cisplatin Sensitization Assay” value was “+++ (Compounds with a Cisplatin sensitization value of <0.02 μM are marked with “+++.”)”. With Cc1cncn1-c1ccncc1NC(=O)c1c(N)nn2cc(F)cnc12 [I-N-283, 2-amino-6-fluoro-N-(4-(5-methyl-1H-imidazol-1-yl)pyridin-3-yl)pyrazolo[1,5-a]pyrimidine-3-carboxamide] the “Cisplatin Sensitization Assay” value was “++ (Compounds with a Cisplatin sensitization value >0.02 μM but <0.2 μM are marked with “++.”)”. Nc1nn2cc(F)cnc2c1C(=O)Nc1cncc(Cl)c1N1CCC(O)C1 (stereo not drawn) [I-N-284, 2-amino-N-(5-chloro-4-(3-hydroxypyrrolidin-1-yl)pyridin-3-yl)-6-fluoropyrazolo[1,5-a]pyrimidine-3-carboxamide] was tested, and the “Cisplatin Sensitization Assay” value was “+++ (Compounds with a Cisplatin sensitization value of <0.02 μM are marked with “+++.”)”. For N#C[C@@H]1CCN(c2c(Cl)cncc2NC(=O)c2c(N)nn3cc(F)cnc23)C1 [I-N-285, (R)-2-amino-N-(5-chloro-4-(3-cyanopyrrolidin-1-yl)pyridin-3-yl)-6-fluoropyrazolo[1,5-a]pyrimidine-3-carboxamide], the “Cisplatin Sensitization Assay” value was “++ (Compounds with a Cisplatin sensitization value >0.02 μM but <0.2 μM are marked with “++.”)”. With CN1CC2CN(c3c(Cl)cncc3NC(=O)c3c(N)nn4cc(F)cnc34)CC2C1 (stereo not drawn) [I-N-286, 2-amino-N-(5-chloro-4-(5-methylhexahydropyrrolo[3,4-c]pyrrol-2(1H)-yl)pyridin-3-yl)-6-fluoropyrazolo[1,5-a]pyrimidine-3-carboxamide] the “Cisplatin Sensitization Assay” value was “++ (Compounds with a Cisplatin sensitization value >0.02 μM but <0.2 μM are marked with “++.”)”. CS(=O)(=O)C1CCN(c2c(Cl)cncc2NC(=O)c2c(N)nn3cc(F)cnc23)C1 (stereo not drawn) [I-N-287, 2-amino-N-(5-chloro-4-(3-(methylsulfonyl)pyrrolidin-1-yl)pyridin-3-yl)-6-fluoropyrazolo[1,5-a]pyrimidine-3-carboxamide] was tested, and the “Cisplatin Sensitization Assay” value was “+++ (Compounds with a Cisplatin sensitization value of <0.02 μM are marked with “+++.”)”. For Nc1nn2cc(F)cnc2c1C(=O)Nc1cncc(F)c1N1CCC(n2ccnc2)CC1 [I-N-288, N-(4-(4-(1H-imidazol-1-yl)piperidin-1-yl)-5-fluoropyridin-3-yl)-2-amino-6-fluoropyrazolo[1,5-a]pyrimidine-3-carboxamide], the “Cisplatin Sensitization Assay” value was “+++ (Compounds with a Cisplatin sensitization value of <0.02 μM are marked with “+++.”)”. With CN1CCN(C(=O)C2CCCN(c3c(F)cncc3NC(=O)c3c(N)nn4cc(F)cnc34)C2)CC1 (stereo not drawn) [I-N-289, 2-amino-6-fluoro-N-(5-fluoro-4-(3-(4-methylpiperazine-1-carbonyl)piperidin-1-yl)pyridin-3-yl)pyrazolo[1,5-a]pyrimidine-3-carboxamide] the “Cisplatin Sensitization Assay” value was “++ (Compounds with a Cisplatin sensitization value >0.02 μM but <0.2 μM are marked with “++.”)”. For CN(C)C(=O)C1CCCN(c2ccncc2NC(=O)c2c(N)nn3cc(F)cnc23)C1 (stereo not drawn) [I-N-290, 2-amino-N-(4-(3-(dimethylcarbamoyl)piperidin-1-yl)pyridin-3-yl)-6-fluoropyrazolo[1,5-a]pyrimidine-3-carboxamide], the “Cisplatin Sensitization Assay” value was “++ (Compounds with a Cisplatin sensitization value >0.02 μM but <0.2 μM are marked with “++.”)”. CN1CC[C@H](Oc2ccncc2NC(=O)c2c(N)nn3cc(F)cnc23)C1 [I-O-1, (S)-2-amino-6-fluoro-N-(4-((1-methylpyrrolidin-3-yl)oxy)pyridin-3-yl)pyrazolo[1,5-a]pyrimidine-3-carboxamide] was tested, and the “Cisplatin Sensitization Assay” value was “+++ (Compounds with a Cisplatin sensitization value of <0.02 μM are marked with “+++.”)”. For CN(C)Cc1ccc(Oc2ccncc2NC(=O)c2c(N)nn3cc(F)cnc23)cn1 [I-O-3, 2-amino-N-(4-((6-((dimethylamino)methyl)pyridin-3-yl)oxy)pyridin-3-yl)-6-fluoropyrazolo[1,5-a]pyrimidine-3-carboxamide], the “Cisplatin Sensitization Assay” value was “++ (Compounds with a Cisplatin sensitization value >0.02 μM but <0.2 μM are marked with “++.”)”. In the case of COc1ccncc1NC(=O)c1c(N)nn2cc(F)cnc12 [I-O-4, 2-amino-6-fluoro-N-(4-methoxypyridin-3-yl)pyrazolo[1,5-a]pyrimidine-3-carboxamide], the “Cisplatin Sensitization Assay” value is reported as “++ (Compounds with a Cisplatin sensitization value >0.02 μM but <0.2 μM are marked with “++.”)”. Nc1nn2cc(F)cnc2c1C(=O)Nc1cnccc1O[C@H]1CN2CCC1CC2 [I-O-5, (R)-2-amino-6-fluoro-N-(4-(quinuclidin-3-yloxy)pyridin-3-yl)pyrazolo[1,5-a]pyrimidine-3-carboxamide] was tested, and the “Cisplatin Sensitization Assay” value was “+++ (Compounds with a Cisplatin sensitization value of <0.02 μM are marked with “+++.”)”. With Nc1nn2cc(F)cnc2c1C(=O)Nc1cnccc1Oc1cccnc1 [I-O-7, 2-amino-6-fluoro-N-(4-(pyridin-3-yloxy)pyridin-3-yl)pyrazolo[1,5-a]pyrimidine-3-carboxamide] the “Cisplatin Sensitization Assay” value was “++ (Compounds with a Cisplatin sensitization value >0.02 μM but <0.2 μM are marked with “++.”)”. With Nc1nn2cc(F)cnc2c1C(=O)Nc1cnccc1OC1CCC(C(=O)O)CC1 (stereo not drawn) [I-O-8, 4-((3-(2-amino-6-fluoropyrazolo[1,5-a]pyrimidine-3-carboxamido)pyridin-4-yl)oxy)cyclohexanecarboxylic acid] the “Cisplatin Sensitization Assay” value was “+ (Compounds with a Cisplatin sensitization value >0.2 μM but <5 μM are marked with “+.”)”. For Nc1nn2cc(F)cnc2c1C(=O)Nc1cnccc1O[C@H]1CCCN(C2COC2)C1 [I-O-9, (S)-2-amino-6-fluoro-N-(4-((1-(oxetan-3-yl)piperidin-3-yl)oxy)pyridin-3-yl)pyrazolo[1,5-a]pyrimidine-3-carboxamide], the “Cisplatin Sensitization Assay” value was “++ (Compounds with a Cisplatin sensitization value >0.02 μM but <0.2 μM are marked with “++.”)”. With Nc1nn2cc(F)cnc2c1C(=O)Nc1cnccc1O[C@@H]1CN2CCC1CC2 [I-O-10, (S)-2-amino-6-fluoro-N-(4-(quinuclidin-3-yloxy)pyridin-3-yl)pyrazolo[1,5-a]pyrimidine-3-carboxamide] the “Cisplatin Sensitization Assay” value was “+++ (Compounds with a Cisplatin sensitization value of <0.02 μM are marked with “+++.”)”. In the case of Nc1nn2cc(F)cnc2c1C(=O)Nc1cnccc1OC1CCN(C2COC2)CC1 [I-O-11, 2-amino-6-fluoro-N-(4-((1-(oxetan-3-yl)piperidin-4-yl)oxy)pyridin-3-yl)pyrazolo[1,5-a]pyrimidine-3-carboxamide], the “Cisplatin Sensitization Assay” value is reported as “+++ (Compounds with a Cisplatin sensitization value of <0.02 μM are marked with “+++.”)”.
